The IC50 is the concentration needed to halve the response being measured.

We go through 3 molecules from PMC4854315, “Discovery of a novel allosteric inhibitor-binding site in ERK5: comparison with the canonical kinase hinge ATP-binding site” (Acta Crystallographica. Section D, Structural Biology, 2016).

Read-outs that look alike come from different tables or passages of the source.

In assay [1] the test system is 225 kinases in the ThermoFisher standard kinase panel. In words: Kinase-panel activity screen, whole panel. It counts as biochemical. Particulars: 10 µM compound; for Kinase selectivity profile in words: panel of 225 kinases. The protocol: Compounds 2, 3 and 5 were tested for activity against the 225 kinases in the ThermoFisher standard kinase panel. The standard Z′-LYTE assay protocol (ThermoFisher) was used to measure the percentage inhibition at 10 µM compound concentration (details are provided in the supporting information).

For assay [2], the target named is T1, recombinant human ERK5 (Homo sapiens, UniProt Q13164).
T1 construct: Catalytically active kinase domain of recombinant human ERK5 enzyme was purchased from Carna Biosciences; purchased Carna Biosciences
T1 sequence (Q13164 55-347 limits assumed): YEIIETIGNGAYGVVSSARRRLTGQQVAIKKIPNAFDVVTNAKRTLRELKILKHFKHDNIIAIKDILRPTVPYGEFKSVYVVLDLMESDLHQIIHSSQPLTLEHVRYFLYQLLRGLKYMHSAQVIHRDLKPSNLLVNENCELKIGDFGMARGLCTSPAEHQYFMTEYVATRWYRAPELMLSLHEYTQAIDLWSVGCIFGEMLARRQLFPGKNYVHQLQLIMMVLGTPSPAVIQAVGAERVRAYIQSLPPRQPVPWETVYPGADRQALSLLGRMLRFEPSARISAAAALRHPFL
In words: TR-FRET (LANCE Ultra) biochemical assay of ERK5 kinase activity. The protocol:
Catalytically active kinase domain of recombinant human ERK5 enzyme was purchased from Carna Biosciences. […] The inhibitory potency of compounds against ERK5 was evaluated using the LANCE Ultra technology from PerkinElmer according to the manufacturer’s instructions. Briefly, 3 µl of different concentrations of ATP and 100 nM ULight-eIF4E-binding protein 1 (Thr37/46) peptide (Perkin-Elmer catalogue No. TRF0128) were incubated in the presence of serially diluted compound or DMSO control at room temperature in 384-well Greiner white polystyrene assay plates. The reaction was initiated by the addition of 3 µl of 10 nM kinase. The assay buffer consisted of 1 mM DTT, 10 mM MgCl2, 1 mM EGTA, 0.01%(v/v) Tween 20 in 50 mM HEPES pH 7.5. After 60 min incubation, the reaction was stopped by the addition of 6 µl stop/detection reagent mixture consisting of 20 mM EDTA and 4 nM Eu-anti-phospho-eIF4E-binding protein 1 (Thr37/46) antibody (PerkinElmer catalogue No. TRF0216) diluted in detection buffer. The plates were incubated for 1 h before the fluorescence was measured at 615 and 665 nm with an excitation wavelength of 320 nm using an EnVision Multilabel Reader from Perkin-Elmer in time-resolved fluorescence resonance energy transfer (TR-FRET) mode. The calculated signal ratio at 665/615 nm is proportional to the kinase activity. The concentration of compound producing 50% inhibition of the kinase activity (IC50) was calculated by using GraphPad Prism to fit the data to a symmetrical sigmoidal curve.
(In general: TR-FRET usually uses a lanthanide donor and a delayed reading to cut background.)

The subject of assay [3] is ERK5 signalling. Details: method as in Gavine et al., 2015. Particulars: HEK293 cell line stably co-expressing MEK5CA and ERK5; ref Gavine et al., 2015; cited from earlier work.
Where [4] appears, read: TR-FRET enzymatic assay, phosphorylated ERK5, read-out: ERK5 IC50.

On to `Cc1ncc(-c2nc(Nc3ccc(C(=O)NCCN4CCCCC4)cc3)ncc2F)n1C(C)C` [Compound 3], for which, in assay [1], the “Kinase selectivity profile in words” value was “most promiscuous”. Also, the IC50 in assay [2] (setting [4]) stood at 0.042 µM.

As for `Cc1cc(Nc2nc(N)nn2C(=O)NC(C)C)ccc1Cl` [Compound 5], the “Number of kinases with significant activity (greater than 80% inhibition) out of the 225 tested” value in assay [1] is on record as “five”. In addition, the “Kinase selectivity profile in words” value in assay [1] is given as “most selective”. In addition, the “Mode of ERK5 inhibition with respect to ATP” value in assay [2] (ATP-competition study, IC50 curves at different ATP concentrations) is “ATP-competitive”. Besides, the concentration for half-maximal inhibition (IC50) is 2.3 µM in assay [2] (ERK5 IC50 at [ATP] 20 µM, [ATP] 20 µM); 2.9 µM in assay [2] (ERK5 IC50 at [ATP] 40 µM, [ATP] 40 µM); 3.1 µM in assay [2] (ERK5 IC50 at [ATP] 60 µM, [ATP] 60 µM); 4.1 µM in assay [2] (ERK5 IC50 at [ATP] 200 µM, [ATP] 200 µM); 9.9 µM in assay [2] (ERK5 IC50 at [ATP] 1000 µM, [ATP] 1000 µM); 14.8 µM in assay [2] (ERK5 IC50 at [ATP] 2000 µM, [ATP] 2000 µM). The IC50 came out at 2.3 µM in assay [2] (setting [4]); 3.4 µM in assay [2] ([ATP] 80 µM, read-out: ERK5 IC50 at [ATP] 80 µM); 6.3 µM in assay [2] ([ATP] 500 µM, read-out: ERK5 IC50 at [ATP] 500 µM).

For “XMD8-92 [Compound 2, reference compound]”, the “Block of downstream ERK5 signalling” value in assay [3] is “able to block downstream ERK5 signalling”.
